Holding throughout (test): FRET lipid mixing of SNARE liposomes
Holding throughout (type): biochemical
Conditions in all cases: 37°C; 10 µM polyphenol (as in Figure 2)

Assay [1] addresses T1, SNAP-23/Syn4/VAMP8 (Rattus norvegicus, UniProt O70377+Q08850+Q9WUF4).
T1 sequence (O70377 1-210): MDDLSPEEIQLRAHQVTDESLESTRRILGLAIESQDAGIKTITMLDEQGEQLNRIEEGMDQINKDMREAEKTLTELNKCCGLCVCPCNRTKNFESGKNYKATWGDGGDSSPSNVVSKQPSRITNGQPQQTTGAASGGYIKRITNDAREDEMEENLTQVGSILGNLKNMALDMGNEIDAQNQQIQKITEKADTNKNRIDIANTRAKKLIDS
T1 sequence (Q08850 1-298): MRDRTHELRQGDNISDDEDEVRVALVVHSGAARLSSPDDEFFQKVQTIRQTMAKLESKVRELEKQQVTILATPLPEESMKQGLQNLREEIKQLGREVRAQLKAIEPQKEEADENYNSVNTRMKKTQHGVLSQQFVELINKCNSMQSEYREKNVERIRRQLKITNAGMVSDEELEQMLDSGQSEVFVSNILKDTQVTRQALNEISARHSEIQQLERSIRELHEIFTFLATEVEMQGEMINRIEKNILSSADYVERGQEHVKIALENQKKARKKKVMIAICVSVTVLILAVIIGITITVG
T1 sequence (Q9WUF4 1-100): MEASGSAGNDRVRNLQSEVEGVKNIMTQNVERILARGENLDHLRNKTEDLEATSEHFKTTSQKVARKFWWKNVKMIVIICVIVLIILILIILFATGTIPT

The target in assay [2] is T2, SNAP-23/Syn4/VAMP2 (Rattus norvegicus, UniProt O70377+P63045+Q08850).
For assay [3], the target named is T2, SNAP-23/Syn4/VAMP2. This is another data set of the same source.

T2 sequence (P63045 2-116, one chain of several): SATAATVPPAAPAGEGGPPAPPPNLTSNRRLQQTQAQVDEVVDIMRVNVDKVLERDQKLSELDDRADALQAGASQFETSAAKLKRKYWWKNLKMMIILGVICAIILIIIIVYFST

For the compound `O=c1c(O)c(-c2cc(O)c(O)c(O)c2)oc2cc(O)cc(O)c12` [MR, myricetin], the “% inhibition” value in assay [1] and in assay [2] was 75-90% throughout. As to `O=c1cc(-c2ccc(O)cc2)oc2cc(O)cc(O)c12` [AP, apigenin], the “% inhibition” value was ~ 90% in assay [1] and ~ 40% in assay [2].

With `O=C(O)/C=C/c1ccccc1` [TC, trans-cinnamic acid], the “% inhibition” value in assay [3] was “these polyphenols robustly inhibited SNAP-23/Syn4/VAMP2- driven fusion”. On to `COc1cc2c(c(OC)c1OC)-c1c(cc3c(c1OC)OCO3)CC(C)C(C)C2` (centres unmarked) [GN, gomisin N], for which the “% inhibition” value in assay [3] is “these polyphenols robustly inhibited SNAP-23/Syn4/VAMP2- driven fusion”. Still for that read-out and setting: the entry for `C[C@@H]1O[C@@H](OC[C@H]2O[C@@H](Oc3c(-c4ccc(O)c(O)c4)oc4cc(O)cc(O)c4c3=O)[C@H](O)[C@@H](O)[C@@H]2O)[C@H](O)[C@H](O)[C@H]1O` [RT, rutin] is “did not inhibit SNAP-23/Syn4/VAMP8- driven fusion, but did inhibit SNAP-23/Syn4/VAMP2-driven fusion”. As for `Oc1cc(O)c2cc(O)c(-c3cc(O)c(O)c(O)c3)[o+]c2c1` [DL, delphinidin], in assay [1], the “% inhibition” value is ~ 60%.

(Values after article PMC4831212 (The Biochemical journal, 2013).)
